# Values of other authors, collected in patent US20220168408A1, “MULTI-VALENT IMMUNOTHERAPY COMPOSITION AND METHODS OF USE FOR TREATING WT1-POSITIVE CANCERS” (SLSG LIMITED LLC, priority 2019, published 2022).
# System: CD4+ and CD8+ responses
# Conditions: according to data from preclinical and phase 1 studies
sequence,measurement,value
SGQAYMFPNAPYLPSCLES (Mutated Homo sapiens) [WT1-122A1 long],stimulation of CD4+ and CD8+ responses,stimulate both CD4+ and CD8+ responses
